Experimental data taken from US10370436B2, “Anti-pseudomonas Psl binding molecules and uses thereof” (priority 2011, dated 2019).

Legend:
[1] = tested on: non-mucoid P. aeruginosa strains from clinically relevant O-antigen serotypes; test: OPK assay, non-mucoid clinical isolates; format: cell-based, Pseudomonas aeruginosa; conditions: FIG. 2C
Method: (§1) This example describes the evaluation of prioritized human IgG1 antibodies to promote OPK of P. aeruginosa. […] OPK assays were performed as described in (DiGiandomenico, A., et al., Infect Immun 72, 7012-7021 (2004)), with modifications. Briefly, assays were performed in 96-well plates using 0.025 ml of each OPK component; P. aeruginosa strains; diluted baby rabbit serum; differentiated HL-60 cells; and monoclonal antibody. In some OPK assays, luminescent P. aeruginosa strains, which were constructed as described (Choi, K. H., et al., Nat Methods 2, 443-448 (2005)), were used. Luminescent OPK assays were performed as described above but with determination of relative luciferase units (RLUs) using a Perkin Elmer ENVISION Multilabel plate reader (Perkin Elmer).
(§2) The ability of Cam-003 to mediate OPK activity against representative non-mucoid strains from clinically relevant O-antigen serotypes and against mucoid P. aeruginosa strains which were derived from cystic fibrosis patients was evaluated.

[2] = tested on: mucoid P. aeruginosa strains derived from cystic fibrosis patients; test: OPK assay, mucoid isolates; format: cell-based, Pseudomonas aeruginosa; conditions: FIG. 2D
Method: as §1, §2

[3] = tested on: Psl (enriched carbohydrate purified from PAO1ΔwbpL/algD/pelA); test: Psl capture binding assay (FORTEBIO OCTET 384); parameters: species or system Pseudomonas aeruginosa; conditions: FIG. 3K
Method: To confirm that all of the antibodies bound to the same antigen, a Psl capture binding assay was performed using a FORTEBIO® OCTET® 384 instrument as described above. The antigen was proteinase K-treated enriched carbohydrate purified from PAO1ΔwbpL/algD/pelA (O-antigen-, alginate- and Pel exopolysaccharide-deficient). Individual antibodies were bound to aminopropylsilane biosensors followed by blocking and the addition of the enriched carbohydrate antigen. After washing to remove unbound antigen, binding of unlabelled mAbs to captured antigen was assessed.

[4] = tested on: P. aeruginosa PAO1.lux association with A549 cells; test: Cell attachment assay, PAO1.lux to A549 cells; format: cell-based, Pseudomonas aeruginosa; conditions: MOI of 10, FIG. 4, FIG. 9B
Method: Anti-Psl antibodies were added to a confluent monolayer of A549 cells (an adenocarcinoma human alveolar basal epithelial cell line) grown in opaque 96-well plates (Nunc Nunclon Delta). Log-phase luminescent P. aeruginosa PAO1 strain (PAO1.lux) was added at an MOI of 10. After incubation of PAO1.lux with A549 cells at 37° C. for 1 hour, the A549 cells were washed, followed by addition of LB+0.5% glucose. Bacteria were quantified following a brief incubation at 37° C. as performed in the OPK assay described in Example 2. Measurements from wells without A549 cells were used to correct for non-specific binding.

[5] = tested on: Psl on in vivo passaged P. aeruginosa strains; test: Flow cytometry of in vivo passaged P. aeruginosa; format: binding, Pseudomonas aeruginosa
Description: For IgG expression, the VH and VL chains of selected antibodies were cloned into human IgG1 expression vectors, co-expressed in HEK293 cells, and purified by protein A affinity chromatography as described (Persic, L., et al., Gene 187, 9-18 (1997)). Human IgG1 antibodies made with the variable regions from these selected serotype independent phage were confirmed for P. aeruginosa specificity and prioritized for subsequent analysis by whole cell binding to dominant clinically relevant serotypes by FACS analysis (FIG. 1F), since this method is more stringent than ELISA. For the flow cytometry based binding assays mid-log phase P. aeruginosa strains were concentrated in PBS to an OD650 of 2.0. After incubation of antibody (10 μg/mL) and bacteria (˜1×10^7 cells) for 1 hr at 4° C. with shaking, washed cells were incubated with an ALEXA FLUOR […] goat anti-human IgG antibody (Invitrogen, Carlsbad, Calif.) for 0.5 hr at 4° C. Washed cells were stained with BACLIGHT™ green bacterial stain as recommended (Invitrogen, Carlsbad, Calif.). Samples were run on a LSR II flow cytometer (BD Biosciences) and analyzed using BD FacsDiva (v. 6.1.3) and FlowJo (v. 9.2; TreeStar).
To test if Psl expression in vivo is maintained, mice were injected intraperitoneally with P. aeruginosa isolates followed by harvesting of bacteria by peritoneal lavage four hours post-infection. The presence of Psl was analyzed with a control antibody and Cam-003 by flow cytometry as conditions for antibody binding are more stringent and allow for quantification of cells that are positive or negative for Psl expression. For ex vivo binding, bacterial inocula (0.1 ml) was prepared from an overnight TSA plate and delivered intraperitoneally to BALB/c mice. At 4 hr. following challenge, bacteria were harvested, RBCs lysed, sonicated and resuspended in PBS supplemented with 0.1% Tween-20 and 1% BSA. Samples were stained and analyzed as previously described in Example 1. […] Within the inocula, Psl was not detected for strain 6077 and was minimally detected for strains PAO1 (O5) and 6206 (O11-cytotoxic).
The level of Psl expression/accessibility on the surface of P. aeruginosa strains PAO1 and 6206 in the acute pneumonia model was also assessed. Bacteria prepared from overnight-incubated, confluent plates, as described above, were intranasally administered to BALB/c mice. At 4 and 24 hours post-infection, bacteria were recovered from the lungs by bronchoalveolar lavage. Samples were stained and analyzed as previously described in Example 1.

[6] = tested on: P. aeruginosa PAO10 LPS; test: Endotoxemia (LPS challenge) model; format: in vivo, C57Bl/6 mice; conditions: control mice dosed with unconjugated mAb
Method: In particular, C57Bl/6 mice (10 per group) were dosed i.p. with mAb or PMB-mAb conjugate 6 h prior to challenge with P. aeruginosa PAO10 LPS (Sigma) and D-galactosamine. PMB control was dosed i.p. 2 h prior to challenge at 0.2 mg/kg and typically provides 80-100% protection. Control mice dosed with unconjugated CAM-003 all died within 18 h.
TM conjugates were dosed at 45, 15 and 5 mg/kg.

For “Cam-003: human IgG1 anti-Psl monoclonal antibody, VH SEQ ID NO: 1 and VL SEQ ID NO: 2”, the OPK activity [1] was “mediated potent OPK of all non-mucoid clinical isolates tested”, the OPK activity [2] was “mediated potent killing of all mucoid P. aeruginosa isolates that were tested” and the “reactivity of unlabelled mAb to captured Psl” value [3] was “reacted”. The “capture of Psl antigen by biosensor-bound antibody” value ([3]; antibody bound to aminopropylsilane biosensors) was “capable of capturing antigen”, the “inhibition of association of PAO1.lux to A549 cells” value [4] was “most active at inhibiting P. aeruginosa cell attachment to A549 lung epithelial cells” and the “staining of bacteria by flow cytometry” value ([5]; 6206, bronchoalveolar lavage 4 hours post-infection, FIG. 5D) was “minimal”. The “staining of bacteria by flow cytometry” value ([5]; PAO1, bronchoalveolar lavage 4 hours post-infection, FIG. 5D) was “Strong Cam-003 staining”, the “staining of bacteria by flow cytometry” value ([5]; PAO1 and 6206, bronchoalveolar lavage 24 hours post-infection, FIG. 5E) was “strong Cam-003 staining” and the “reactivity by flow cytometry after in vivo passage” value ([5]; PAO1ΔpslA) was “unable to react with Cam-003”. The “staining of bacteria by flow cytometry” value ([5]; three wild type strains harvested by peritoneal lavage 4 hr after intraperitoneal challenge, FIG. 5C) was “strong Cam-003 staining” and the “time within which all mice died” value [6] was at most 18 h.
